# From patent publication US20210283163A1, “COMPOSITIONS AND METHODS FOR THE TREATMENT OF ACUTE AND CHRONIC PRURITIS” (Duke University, priority 2018, published 2021)
# Columns and labels:
# [1] = target: T1, TRPV4 (Mus musculus, UniProt Q9EPK8); assay: Whole-cell patch clamp in CHO cells transfected with mouse Trpv4 cDNA; assay type: cell-based; conditions: miR-711 10 μM; GSK1016790A 1 μM
# T1 construct: expressed in transfected cells; host or cells: CHO cells (ATCC CRL-9096), plasmid pcDNA3.1-mTrpv4, a gift from Korea University
# T1 sequence (Q9EPK8 whole entry): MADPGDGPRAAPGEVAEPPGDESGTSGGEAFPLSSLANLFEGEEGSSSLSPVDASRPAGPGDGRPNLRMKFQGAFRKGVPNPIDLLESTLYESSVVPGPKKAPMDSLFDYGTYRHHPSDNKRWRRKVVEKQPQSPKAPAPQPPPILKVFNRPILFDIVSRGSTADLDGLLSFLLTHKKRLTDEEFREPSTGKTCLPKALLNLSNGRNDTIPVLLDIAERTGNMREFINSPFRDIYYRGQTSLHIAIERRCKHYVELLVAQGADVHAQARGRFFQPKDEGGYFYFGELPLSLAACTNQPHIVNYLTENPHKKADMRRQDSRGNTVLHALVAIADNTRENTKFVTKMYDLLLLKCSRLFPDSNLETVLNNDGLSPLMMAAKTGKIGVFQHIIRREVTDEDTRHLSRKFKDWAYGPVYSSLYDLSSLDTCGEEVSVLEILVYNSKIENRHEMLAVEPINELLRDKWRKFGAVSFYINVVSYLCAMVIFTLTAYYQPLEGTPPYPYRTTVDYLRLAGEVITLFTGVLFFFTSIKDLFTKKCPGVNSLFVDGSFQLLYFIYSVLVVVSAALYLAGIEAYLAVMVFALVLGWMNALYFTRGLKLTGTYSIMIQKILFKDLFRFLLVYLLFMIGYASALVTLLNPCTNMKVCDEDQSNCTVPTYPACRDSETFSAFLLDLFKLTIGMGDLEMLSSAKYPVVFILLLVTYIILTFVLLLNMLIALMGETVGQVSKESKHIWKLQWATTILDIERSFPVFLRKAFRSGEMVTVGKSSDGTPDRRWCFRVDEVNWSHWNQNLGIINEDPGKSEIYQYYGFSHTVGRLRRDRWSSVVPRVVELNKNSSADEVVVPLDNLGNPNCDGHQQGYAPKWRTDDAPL
# Protocol: (§1) Constructs. The cDNAs of mouse pcDNA3.1-Trpa1, pcDNA3.1-Trpv1, pcDNA3.1-Trpv2, pcDNA3.1-Trpv3, and pcDNA3.1-Trpv4 were kindly provided Dr. Sun Work Hwang from Korea University. Mouse Trpa1 cDNA was subcloned into pCGN-HA backbone (Addgene) using In-Fusion HD Cloning Kit (Clontech Laboratories, CA). Q5 Site-Directed Mutagenesis Kit was used to generate mTrpa1 mutant (M1-M13) based on pCGN-mTrpa1.
# (§2) Cell Culture and Transfection. CD4^+ Myla cell line was cultured in RPMI 1640 media (GIBCO), supplemented with 2 mM Glutamine (GIBCO), 100 U/mL IL-2 (Sigma), 100 U/mL IL-4 (Sigma), and 10% human AB serum (Sigma). HuT 102 cell line was cultured in RPMI 1640 supplemented with pyruvate, HEPES, and 10% (v/v) fetal bovine serum (HyClone). HEK293-hTRPA1 stable cell line was cultured in MEM (GIBCO) containing 2 mM Glutamine, 4 μg/mL Blasticidin, 10% FBS (v/v). B16 and CHO cells were cultured in high glucose (4.5 g/L) Dulbecco's Modified Eagle's Medium (GIBCO) containing 10% (v/v) fetal bovine serum (GIBCO). Culture media were supplemented with 50 units/mL of penicillin and 50 μg/mL streptomycin, and cultures were maintained with 5% CO2 in 37° C. incubator. Transfection (2 μg cDNA) was performed with Lipofectamine™ 2000 Reagent (Invitrogen) at 80% confluency and the transfected cells were cultured in the same media for 48 hr before electrophysiological and biochemical studies. […]
# [2] = target: T2, TRPV2 (Mus musculus, UniProt Q9WTR1); assay: Whole-cell patch clamp in CHO cells transfected with mouse Trpv2 cDNA; assay type: cell-based; conditions: miR-711 10 μM; cannabidiol 100 μM
# T2 construct: expressed in transfected cells; host or cells: CHO cells (ATCC CRL-9096), plasmid pcDNA3.1-mTrpv2, a gift from Korea University
# T2 sequence (Q9WTR1 1-756): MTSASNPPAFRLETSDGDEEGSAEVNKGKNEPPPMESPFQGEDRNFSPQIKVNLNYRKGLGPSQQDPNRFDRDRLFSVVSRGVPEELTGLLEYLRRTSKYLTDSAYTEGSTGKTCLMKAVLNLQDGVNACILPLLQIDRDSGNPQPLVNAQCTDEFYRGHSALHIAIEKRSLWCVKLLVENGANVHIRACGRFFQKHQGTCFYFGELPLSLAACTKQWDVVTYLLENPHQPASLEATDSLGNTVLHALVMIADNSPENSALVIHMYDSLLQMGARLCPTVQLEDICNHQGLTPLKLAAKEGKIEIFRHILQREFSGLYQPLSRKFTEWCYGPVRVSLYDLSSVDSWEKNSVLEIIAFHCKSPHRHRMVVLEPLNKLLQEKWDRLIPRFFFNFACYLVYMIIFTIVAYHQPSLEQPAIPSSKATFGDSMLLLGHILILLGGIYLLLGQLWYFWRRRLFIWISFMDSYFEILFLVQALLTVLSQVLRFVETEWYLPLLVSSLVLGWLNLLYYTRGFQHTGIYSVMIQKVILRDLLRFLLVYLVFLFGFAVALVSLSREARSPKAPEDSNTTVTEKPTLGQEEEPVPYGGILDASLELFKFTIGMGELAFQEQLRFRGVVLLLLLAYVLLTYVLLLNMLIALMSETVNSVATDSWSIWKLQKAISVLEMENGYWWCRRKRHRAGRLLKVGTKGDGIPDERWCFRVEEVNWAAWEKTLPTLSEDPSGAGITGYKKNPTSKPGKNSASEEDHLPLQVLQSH
# Protocol: as §1, §2
# [3] = system: mice; assay: Evans blue extravasation, neurogenic inflammation in a hind paw; assay type: in vivo, mouse; conditions: intraplantar, 10 μL; capsaicin 1 mM, AITC 5 mM, miR-711 1 mM
# Protocol: Evans Blue Extravasation. To examine neurogenic inflammation in a hind paw (Han et al., Neuron 2016, 92, 1279-1293), mice were anesthetized with 5% isoflurane. Evans blue (50 mg/kg body weight) was given intravenously 10 min before neurogenic irritant application. […] Evans blue was extracted from the tissues by incubation in 400 μL formamide at 37° C. for 48 hr. Evans blue was quantified by measuring the optical density of the formamide extract at 620 nm. Absorbance was normalized to per gram of tissue weight.
# [4] = target: T3, TRPV1 (Mus musculus, UniProt Q704Y3); assay: Whole-cell patch clamp in CHO cells transfected with mouse Trpv1 cDNA; assay type: cell-based; conditions: miR-711 10 μM; capsaicin 50 nM
# T3 construct: expressed in transfected cells; host or cells: CHO cells (ATCC CRL-9096), plasmid pcDNA3.1-mTrpv1, a gift from Korea University
# T3 sequence (Q704Y3 whole entry): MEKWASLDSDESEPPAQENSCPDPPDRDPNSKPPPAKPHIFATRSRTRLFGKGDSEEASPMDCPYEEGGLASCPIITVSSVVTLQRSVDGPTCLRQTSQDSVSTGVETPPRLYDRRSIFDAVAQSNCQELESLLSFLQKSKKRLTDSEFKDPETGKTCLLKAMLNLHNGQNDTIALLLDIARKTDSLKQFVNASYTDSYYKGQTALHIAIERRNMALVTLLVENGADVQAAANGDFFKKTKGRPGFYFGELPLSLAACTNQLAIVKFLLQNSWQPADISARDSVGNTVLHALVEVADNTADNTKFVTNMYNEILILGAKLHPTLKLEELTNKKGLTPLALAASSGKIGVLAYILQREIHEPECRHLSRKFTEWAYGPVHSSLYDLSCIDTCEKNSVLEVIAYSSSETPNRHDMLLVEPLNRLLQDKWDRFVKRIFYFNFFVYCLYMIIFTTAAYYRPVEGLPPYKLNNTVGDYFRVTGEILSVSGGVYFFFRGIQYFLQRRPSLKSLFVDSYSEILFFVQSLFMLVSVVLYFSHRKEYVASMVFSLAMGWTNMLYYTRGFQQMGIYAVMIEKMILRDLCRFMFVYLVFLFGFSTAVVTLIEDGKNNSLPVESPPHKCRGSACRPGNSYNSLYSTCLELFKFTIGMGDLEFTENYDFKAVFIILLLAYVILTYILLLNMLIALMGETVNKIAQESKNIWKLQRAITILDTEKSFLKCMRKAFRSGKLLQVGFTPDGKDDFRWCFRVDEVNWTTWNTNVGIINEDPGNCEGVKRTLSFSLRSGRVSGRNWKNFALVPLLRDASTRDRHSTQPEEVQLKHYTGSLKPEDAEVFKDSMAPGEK
# Protocol: as §1, §2
# [5] = target: T4, hTRPA1 (Homo sapiens, UniProt O75762); assay: RNA pull-down assay and immunoblotting; assay type: binding; conditions: RNA pull-down
# T4 sequence (O75762 whole entry): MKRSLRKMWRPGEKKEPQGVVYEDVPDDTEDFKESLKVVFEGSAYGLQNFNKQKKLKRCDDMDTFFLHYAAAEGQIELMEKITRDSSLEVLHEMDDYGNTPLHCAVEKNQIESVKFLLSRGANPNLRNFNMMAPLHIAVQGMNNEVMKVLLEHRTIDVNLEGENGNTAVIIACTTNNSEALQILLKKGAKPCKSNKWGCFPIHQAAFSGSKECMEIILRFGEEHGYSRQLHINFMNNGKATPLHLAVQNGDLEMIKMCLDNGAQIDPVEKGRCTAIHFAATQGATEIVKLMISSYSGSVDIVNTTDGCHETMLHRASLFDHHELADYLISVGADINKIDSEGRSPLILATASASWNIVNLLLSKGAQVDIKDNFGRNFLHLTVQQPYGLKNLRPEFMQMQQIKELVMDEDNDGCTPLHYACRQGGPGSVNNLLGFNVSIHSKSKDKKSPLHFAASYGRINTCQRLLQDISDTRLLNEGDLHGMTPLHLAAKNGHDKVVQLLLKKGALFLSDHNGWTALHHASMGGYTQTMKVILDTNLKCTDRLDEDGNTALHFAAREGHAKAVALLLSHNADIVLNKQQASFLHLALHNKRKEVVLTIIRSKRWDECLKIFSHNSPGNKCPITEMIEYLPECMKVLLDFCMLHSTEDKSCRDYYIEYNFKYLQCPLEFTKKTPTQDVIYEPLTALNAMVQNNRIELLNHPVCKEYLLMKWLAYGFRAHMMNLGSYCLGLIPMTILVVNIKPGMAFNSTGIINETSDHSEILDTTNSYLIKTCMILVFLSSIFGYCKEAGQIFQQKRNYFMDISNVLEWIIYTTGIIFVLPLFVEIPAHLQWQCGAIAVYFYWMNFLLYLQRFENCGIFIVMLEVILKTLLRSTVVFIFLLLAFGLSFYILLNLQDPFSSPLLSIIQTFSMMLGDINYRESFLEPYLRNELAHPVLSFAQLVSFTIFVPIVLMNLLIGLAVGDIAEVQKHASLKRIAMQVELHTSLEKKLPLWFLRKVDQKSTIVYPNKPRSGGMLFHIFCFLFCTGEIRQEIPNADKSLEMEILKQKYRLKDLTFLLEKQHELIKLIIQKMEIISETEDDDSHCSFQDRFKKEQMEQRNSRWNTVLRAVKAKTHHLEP
# Protocol: RNA Pull-Down Assay and Immunoblotting. hTRPA1-expressing HEK293 cells of equal amount (5×10^6) were plated onto 60 mm dishes, and 24 hr later, these cells were incubated with biotin-conjugated miR-711 or miR-711 (m6) in extracellular solution containing 140 mM NaCl, 5 mM KCl, 2 mM CaCl2, 1 mM MgCl2, 10 mM HEPES, and 10 mM glucose, adjusted to pH 7.4 for 15 min at 37° C. with 5% CO2. For crosslinking, 1% formaldehyde (vol/vol) was added at 37° C. for 10 min, then 12.5% glycine was applied to stop crosslinking by 5 min incubation at room temperature. Then the cells were collected and sonicated with ultrosonic probe sonicator (80% output, 5 s on and 10 s off) in 1 mL lysis buffer (1% Triton X-100, 50 mM Tris-HCl, 150 mM NaCl, 5 mM EDTA, pH7.4) on ice for 2 min. We then centrifuged the lysate at 13,000 rpm for 10 min at 4° C. and took 50 μL supernatant as lysate control. The remaining supernatant was added 20 μL streptadvilin agrose beads and incubated overnight. The pellets were collected after centrifuge at 6000 rmp for 30 s. For competing assay, miR-711 (10-50 μM) or mutant miR-711 (m6, 10-50 μM) were added 15 min before the incubation with biotin-conjugated miR-711 (10 μM). For immunoblotting, the lysates or beads were incubated in SDS-PAGE loading buffer for 30 min at 50° C., and supernatant was collected after centrifugation at 13000 rpm and decrosslink at 99° C. for 20 min. The samples were separated on an SDS-PAGE gel, transferred, and probed with TRPA1 antibody (1:1000; Alomone labs). The immunoreactive bands were detected with horseradish peroxidase-conjugated secondary antibody, visualized with enhanced chemiluminescence (Thermo scientific, Pittsburgh, Pa.), and quantified with Image-Pro Plus software (Media Cybernetics, Bethesda, Md.). Each experiment was repeated at least three times.
# [6] = system: mice; assay: Acute pruritus induced by intradermal pruritogens, effect of peptides; assay type: in vivo, mouse; conditions: peptide 2 mM, 15 μL intradermal; mmu-miR-711 1 mM, 10 μL
# Protocol: (§3) Behavioral Assessment for Scratching (Itch) and Wiping (Pain). Mice were shaved on the cheek or nape after a brief anesthesia with isoflurane. Before experiments, mice were habituated in small plastic chambers (14×18×12 cm) daily for two days. The room temperature and humidity remained stable for all the experiments. […] After the injection, the number of scratches in 60 min was counted. A scratch was counted when a mouse lifted its hind paw to scratch the shaved region and returned the paw to the floor or to the mouth. A bout of wiping was defined as a continuous wiping movement with a forepaw directing at the area of the injection area (Shimada and LaMotte, Pain 2008, 139, 681-687). Scratching and wiping behavior was videoed for 30 min or 60 min using Sony HDR-CX610 camera. The video was subsequently played back offline and the numbers of scratches and wipes were quantified in a blinded manner.
# [7] = target: T4, hTRPA1; assay: Whole-cell patch clamp, inward currents in HEK293 cells expressing hTRPA1; assay type: cell-based; conditions: peptide 25 μM
# Protocol: Cell Culture and Transfection. CD4^+ Myla cell line was cultured in RPMI 1640 media (GIBCO), supplemented with 2 mM Glutamine (GIBCO), 100 U/mL IL-2 (Sigma), 100 U/mL IL-4 (Sigma), and 10% human AB serum (Sigma). HuT 102 cell line was cultured in RPMI 1640 supplemented with pyruvate, HEPES, and 10% (v/v) fetal bovine serum (HyClone). HEK293-hTRPA1 stable cell line was cultured in MEM (GIBCO) containing 2 mM Glutamine, 4 μg/mL Blasticidin, 10% FBS (v/v). B16 and CHO cells were cultured in high glucose (4.5 g/L) Dulbecco's Modified Eagle's Medium (GIBCO) containing 10% (v/v) fetal bovine serum (GIBCO). Culture media were supplemented with 50 units/mL of penicillin and 50 μg/mL streptomycin, and cultures were maintained with 5% CO2 in 37° C. incubator. Transfection (2 μg cDNA) was performed with Lipofectamine™ 2000 Reagent (Invitrogen) at 80% confluency and the transfected cells were cultured in the same media for 48 hr before electrophysiological and biochemical studies.
# Whole-Cell Patch Clamp Recordings in HEK293 Cells, CHO Cells, and DRG Neurons. Whole-cell patch clamp recordings were performed at room temperature using an Axopatch-200B amplifier (Axon Instruments) with a Digidata 1440B (Axon Instruments). In this study, we only examined small-diameter mouse DRG neurons (<25 μM) and small-diameter human DRG neurons (<55 μM). The patch pipettes were pulled from borosilicate capillaries (World Precision Instruments) using a P-97 Flaming/Brown micropipette puller (Sutter Instrument). Pipette resistance was 4-6 MΩ for whole-cell and outside-out recording. For inward current recordings in mouse and human DRG neurons, HEK293 cells, and CHO cells, the internal solution contains (in mM): 140 CsCl, 10 EGTA, 10 HEPES, and 2 Mg-ATP, adjusted to pH 7.3 with CsOH. Whole cell recordings were performed in an extracellular solution that contains (in mM): 140 NaCl, 5 KCl, 2 MgCl2, 10 HEPES, and 10 glucose, adjusted to pH 7.4 with NaOH and osmolarity to 300-310 mOsm. […] Action potential recordings were performed in small-diameter DRG neurons, with the following solutions: i) internal pipette solution contains: 126 mM K-gluconate, 10 mM NaCl, 1 mM MgCl2, 10 mM EGTA, 10 mM HEPES and 2 mM Na-ATP, adjusted to pH 7.4 with KOH and osmolarity to 295-300 mOsm), and ii) extracellular solution contains: 140 mM NaCl, 5 mM KCl, 2 mM MgCl2, 2 mM CaCl2, 10 mM HEPES, 10 mM glucose, adjusted to pH 7.4 with KOH.
# [8] = system: CTCL mice; assay: Mouse CTCL xenograft model of chronic itch; assay type: in vivo; conditions: given 20 days after Myla cell inoculation; hsa-miR-711 inhibitor 100 μM, HC030031 200 μM, A967079 50 μM, peptides 2 mM
# Protocol: Mouse CTCL Xenograft Model of Chronic Itch. We developed a murine xenograft model of cutaneous T cell lymphoma (CTCL) using immune-deficient mice (NOD.CB17-Prkdcscid, 8-10 weeks old, male). CD4^+ MyLa cell line was purchased from Sigma (Ca #95051032). The cell line was established from a plaque biopsy of a person with mycosis fungoides stage II by inclusion of IL-2 and IL-4 in the culture medium. CTCL was generated via intradermal injection of CD4^+ Myla cells (1×10^5 cells/μl, 100 μL) on the nape of the neck. Tumor growth was assessed for 40 days by measurements of tumor diameters.
# as §3
# Generation of Myla Stable Cell Line Expressing miR-711 Inhibitor. CD4^+ Myla cells were plated at a density of 2×10^5 cells/mL in 2 mL culture media in 6-well plates. For each well, 20 μL of the MISSION Lenti microRNA Inhibitor (hsa-miR-711) lentivirus (Sigma) with a titer of 2.6×10^7 Tu/mL were added. Cell mixtures were incubated at 37° C. for 48 hr, washed with PBS three times, and re-suspended in fresh culture media, and 24 hr later, 1 μg/mL puromycin was added to the cells to select stably transduced cell populations. We tried to grow and passage the cells as much as necessary (usually 3 days) and maintained selection pressure by keeping 1 μg/mL puromycin in the medium. After 4 weeks, a large number of the cells were killed; the remaining cells retained the expression of the plasmid, which stably integrates into the genome of the targeted cells. These cells were used for inoculation to generate the CTCL model for testing the effects of miR-711 inhibitor on chronic itch and tumor growth.
# [9] = system: mice; assay: Persistent itch after intradermal adenovirus (AV) overexpression of hsa-miR-711; assay type: in vivo, mouse; conditions: 10 days after the AV injection, A-967079 50 μM, hsa-miR-711 inhibitor 100 μM, blocking peptide 2 μM
# Protocol: as §3
# miRNA Measurement by Quantitative Real-Time RT-PCR (qPCR). Total RNA was isolated from serum of CTCL mice or adenovirus-treated mice using Qiazol Lysis Reagent (QIAGEN) together with miRNeasy Serum/Plasma Kit (Park et al., Neuron 2014, 82, 47-54). All RNA samples were immediately used or kept at −80° C. until further processing. To convert mature miRNA into cDNA, 6 μl of total RNA solution were reverse transcribed using the miScript II RT Kit (including polyadenylation of miRNAs and reverse transcription using an oligo-dT that binds to a universal RT-sequence). Specific miRNA levels were quantified by qPCR using miScript SYBR Green Kit including miScript miRNA assay for hsa-miR-711, hsa-miR21, hsamiR155, and hsa-miR-326, together with the universal RT primer, according to the manufacturer's protocol (CFX96 Real-Time system, Bio-Rad). Relative quantities of miRNAs were calculated using the Ct value after normalization to control miRNAs. Caenorhabditis elegans miRNA-39 (cel-miRNA-39) was included as spiked-in control for extracellular miRNA.
compound,measurement,setting,value
CC(C)C[C@H](NC(=O)c1cc2ccccc2s1)C(=O)N1CCN(C(=O)[C@H](CO)NS(=O)(=O)c2ccc(Cl)cc2Cl)CC1 [GSK1016790A],inward currents,[1],inward currents induced
C=C(C)[C@@H]1CCC(C)=C[C@H]1c1c(O)cc(CCCCC)cc1O [cannabidiol],inward currents,[2],inward currents induced
COc1cc(CNC(=O)CCCC/C=C/C(C)C)ccc1O [capsaicin],neurogenic inflammation in hind paws (Evans blue test),[3],elicited robust neurogenic inflammation
same,inward currents,[4],inward currents induced
NH2-FRNELAAAVATFGQL-COOH (H-FRNELAAAVATFGQL-OH) [mutated peptide],disruption of the miR-711/TRPA1 interaction,[5],Neither did this mutated peptide block
same,effect on miR-711-induced pruritus,[6],nor did this peptide inhibit
same,inhibition of miR-711-induced TRPA1 inward currents,[7],nor did this peptide inhibit
"miR-711 inhibitor: hsa-miR-711 inhibitor with a complementary sequence to hsa-miR-711: cuuacgucucucccuggguccc (SEQ ID NO: 22) (CUUACGUCUCUCCCUGGGUCCC; listed as RNA, chemistry not given here)",effect on CTCL-evoked chronic itch,[8],reduced chronic pruritus
same,effect on hsa-miR-711 AV-induced persistent itch,[9],Inhibition
